From the CheMixHub ionic liquid set

Assay: xn = mol fraction of the nth substance listed
Settings: 101 kPa

CCCC[N+](CCCC)(CCCC)CCCC.O=S(=O)([O-])O + O=C1O[C@H]([C@@H](O)CO)C(O)=C1O + O
viscosity [mPa·s]
Settings | 298.15 K | 308.15 K | 318.15 K
x2 = 0.0003644, x1 = 0.0003601 | 0.908 | 0.734 | 0.61
x2 = 0.0003645, x1 = 9.006e-05 | 0.901 | 0.726 | 0.603
x2 = 0.000365, x1 = 0.0001801 | 0.903 | 0.729 | 0.605
x2 = 0.0003656, x1 = 0.0002701 | 0.906 | 0.731 | 0.607
x2 = 0.0006576, x1 = 0.0001801 | 0.91 | 0.734 | 0.608
x2 = 0.0006584, x1 = 9.003e-05 | 0.908 | 0.732 | 0.606
x2 = 0.0006587, x1 = 0.00027 | 0.912 | 0.737 | 0.611
x2 = 0.0006597, x1 = 0.00036 | 0.915 | 0.739 | 0.614
x2 = 0.0009539, x1 = 9.001e-05 | 0.913 | 0.737 | 0.611
x2 = 0.0009554, x1 = 0.00018 | 0.917 | 0.74 | 0.612
x2 = 0.0009567, x1 = 0.0003599 | 0.921 | 0.745 | 0.619
x2 = 0.0009569, x1 = 0.00027 | 0.919 | 0.742 | 0.617
x2 = 0.001253, x1 = 8.998e-05 | 0.92 | 0.743 | 0.615
x2 = 0.001255, x1 = 0.0001799 | 0.922 | 0.745 | 0.616
x2 = 0.001255, x1 = 0.0002699 | 0.924 | 0.748 | 0.621
x2 = 0.001257, x1 = 0.0003598 | 0.928 | 0.751 | 0.624
x2 = 0.001553, x1 = 8.995e-05 | 0.925 | 0.747 | 0.62
x2 = 0.001556, x1 = 0.0001799 | 0.929 | 0.75 | 0.622
x2 = 0.001558, x1 = 0.0002698 | 0.931 | 0.754 | 0.626
x2 = 0.001561, x1 = 0.0003597 | 0.934 | 0.757 | 0.629
x2 = 0.001859, x1 = 8.992e-05 | 0.931 | 0.751 | 0.625
x2 = 0.00186, x1 = 0.0001798 | 0.934 | 0.755 | 0.627
x2 = 0.001863, x1 = 0.0002697 | 0.938 | 0.758 | 0.631
x2 = 0.001866, x1 = 0.0003596 | 0.94 | 0.762 | 0.634
